{"source": "patent US20170224775A1", "about": "“Lv PEPTIDE, ANTI-Lv ANTIBODY AND METHODS THEREOF” (The Texas A&M University System, priority 2016, published 2017)", "type_in_all_cases": "cell-based, chicken", "key": {"L-VGCC": {"system": "L-VGCC", "experiment": "Whole-cell patch-clamp recordings of L-VGCC currents in cultured embryonic cardiomyocytes", "description": "(§1) Fertilized eggs (Gallus gallus, Single Comb White Leghorns) were obtained from the Poultry Science Department, Texas A&M University (College Station, Tex., USA). All chicken embryos were maintained at 39° C.±0.5° C. Chicken hearts were harvested at embryonic day 12 (E12) and ventricular cardiomyocytes were dissociated and cultured on poly-D-lysine/collagen double-coated dishes (for biochemical and molecular biological assays) or coverslips (for electrophysiological recordings) as described previously. All cultures were maintained at 39° C.±0.5° C. with 5% CO2. Cells were cultured for 2-3 days and subjected to treatments with vehicle, peptide Lv, or pharmaceutical blockers prior to Western blotting or electrophysiological recordings.\nVentricular cardiomyocytes were cultured for two days. Whole-cell patch-clamp recordings of L-VGCC currents were carried out from spontaneously pulsing cardiomyocytes. The external solution was (in mM): 145 TEACl, 9 BaCl2, 0.5 MgCl2, 5.5 glucose, 0.1 NiCl2, and 5 HEPES, pH 7.4 with CsOH or TEAOH. The pipette solution was (in mM): 125 Cs acetate, 20 CsCl, 3MgCl2, 10 EGTA, and 5 HEPES, pH 7.4 adjusted with CsOH. Currents were recorded at room temperature using an A-M Systems model 2400 patch-clamp amplifier (Sequim, Wash., USA). Signals were low-pass filtered at 2 kHz and digitized at 5 kHz with Digidata 1440A interface and pCLAMP 10.0 software (Molecular Devices, Sunnyvale, Calif., USA). Cardiomyocytes were held at −40 mV, and Ba^2+ currents were recorded immediately after whole-cell patches were formed by gentle suctions. Current-voltage (I-V) relationships were elicited from a holding potential at −40 mV using 200 ms steps (5 seconds between steps) over a range from −60 to +60 mV in 10 mV increments. The current densities were calculated by dividing the current amplitudes (pA) by membrane capacitances (pF)."}, "ERK and PKC": {"system": "ERK and PKC", "experiment": "Western blot of pERK and pPKCα/β (downstream of VEGFR2) in cultured cardiomyocytes", "settings": "inhibitor with peptide Lv", "description": "as §1\n(§2) Treated or control cells were washed and lysed in radioimmunoprecipitation assay (RIPA) buffer, and proteins were denatured by mixing with 2× Laemmli sample buffer for 5 minutes at 95° C. Samples were separated on 10% sodium dodecyl sulfate-polyacrylamide gel electrophoresis (SDS-PAGE) gels and transferred to nitrocellulose membranes. The primary antibodies used in this study were pan L-VGCCα1, ERK1/2, di-phosphorylated ERK1/2, actin, phosphorylated PKC α/βII subunit, phosphorylated tyrosine, VEGFR2, and phosphorylated VEGFR2 at tyr1054/1059. […]"}, "VEGFR2": {"system": "VEGFR2", "experiment": "Western blot of VEGFR2 autophosphorylation (pVEGFR2-tyr1054/1059) in cultured embryonic cardiomyocytes", "settings": "DMH4 in presence of peptide Lv", "description": "as §1, §2"}}, "data": [{"molecule": "COc1cccc(-c2cc(=O)c3ccccc3o2)c1N", "note": "[PD98059]", "values": [{"measurement": "peptide Lv augmentation of L-VGCC currents", "setting": "L-VGCC; PD98059 50 μM", "value": "decreased the peptide Lv augmentation of L-VGCC currents"}]}, {"molecule": "CN=c1nc(-c2ccccc2)n(-c2ccccc2)s1", "note": "[SCH202676]", "values": [{"measurement": "inhibition of effects of peptide Lv on pERK and pPKCα/β", "setting": "ERK and PKC", "value": "did not inhibit the effects of peptide Lv on pERK and pPKCα/β"}]}, {"molecule": "COc1ccc2c(c[n+](C)c3c4cc5c(cc4ccc23)OCO5)c1OC", "note": "[chelerythrine]", "values": [{"measurement": "peptide Lv augmentation of L-VGCC currents", "setting": "L-VGCC; chelerythrine 2 μM", "value": "decreased the peptide Lv augmentation of L-VGCC currents"}]}, {"molecule": "DMH4", "values": [{"measurement": "block of VEGFa augmentation of L-VGCCs", "setting": "L-VGCC; DMH4 5 μM with VEGFa", "value": "blocked the augmentation of L-VGCCs by VEGFa"}, {"measurement": "L-VGCCs, inhibitor by itself", "setting": "L-VGCC; DMH4 alone, without peptide Lv", "value": "did not affect the LVGCCs"}, {"measurement": "block of peptide Lv augmentation of L-VGCC currents", "setting": "L-VGCC; DMH4 together with peptide Lv", "value": "able to block the augmentation effect of peptide Lv on L-VGCC currents"}, {"measurement": "inhibition of peptide Lv-enhanced VEGFR2 phosphorylation", "setting": "VEGFR2", "value": "sensitive to DMH4 inhibition"}]}]}
